Where “and” joins values, the source holds several entries; their conditions need not be identical. Identical values can stand only once. Entries after “also recorded” stand apart in the source; their conditions may differ.
What was measured:
dogs [1] = settings: cited from earlier work
client-owned dogs = experiment: Randomized, masked, placebo-controlled field pilot study on aging biomarkers (Example 6); format: in vivo, dog
Text: The effects of Pioglitazone aging biomarkers in client-owned dogs can be determined. Approximately 60 dogs are enrolled and randomized into two groups at a 3:1 ratio of treatment to control. Dogs can be screened on visit 1, which is 7 days before the study, and complete screening on visit 2, Day 0 of the study. The treatment can be randomized with dosing beginning on Day 0. The study has participant dogs enrolled for approximately 3 months, with evaluation visits about every 30 days for biomarker measurements and safety evaluations. The HRQL, CFI, insulin, and FFA blood levels are measured.
Fasting insulin. Dogs should be fasted for 12 hours before blood draw for fasting insulin. If the dog is not fasted before the blood collection, the Protocol Deviation: Subject Level eCRF must be completed.
The study will be a multi-site, field pilot study. The design is a randomized, masked, placebo-controlled study in client-owned dogs. The study will contain two treatment groups randomized at a 3:1 ratio in Table 10 below.
The study will enroll an estimated 60 dogs across all study sites. Approximately 45 dogs will be treated with IVP, and approximately 15 dogs will be treated with CP. Additional dogs may be enrolled if initial attrition rates exceed the anticipated level. Likewise, fewer dogs may be enrolled if the study ends before full enrollment.
Drug Administration. IVP/CP will be administered by the Owner to the subject once daily starting at study visit 2 and for the duration of the study. The administration route for IVP and CP is by mouth (PO).

Beagle dogs [2] = experiment: Pioglitazone started 2 weeks before HFD to prevent metabolic dysfunction; OGTT and HIEG clamp (Example 5); format: in vivo, dog
Text: The purpose of this study was to assess the impact of pioglitazone on HFD-induced insulin resistance, hyperinsulinemia and fatty acid regulation in beagle dogs. We hypothesized that administration of pioglitazone to HFD-fed, metabolically dysfunctional dogs would (1) upregulate adiponectin levels (2) protect whole body insulin sensitivity as measured by an oral glucose tolerance test (OGTT) and hyperinsulinemic euglycemic clamp (HIEG) and (3) prevent increased deleterious fatty acid levels in the face of a HFD.
Study Design: Twenty four animals (between 1 and 2 years old) were acclimated for at least 2 weeks and surgically implanted with a femoral artery catheter under anesthesia. 2 baseline tests were performed before any treatment: an OGTT and a HIEG clamp.
The dogs were then randomly assigned to one of 3 groups: a placebo group (n=8) that received an empty capsule daily, a group that received 1 mg/kg pioglitazone in the form of a 15 mg pill (Dose 1, n=8), a group that received 2 mg/kg pioglitazone in the form of […] (Dose 2, n=8). Pioglitazone pills (Actos, Teva Pharmaceuticals, NJ) were given daily immediately before feeding and flushed with 5 mL of water.
Two weeks after the treatment started, all the animals were put on a HFD (Research Diet 5SQ1, Test Diet from Purina). On Day 46 and 56 after the start of the pioglitazone treatment, the animals were given an OGTT and a HIEG clamp respectively to compare to their baseline metabolic response. On day 46 and 56, placebo and pioglitazone were given one hour before the gavage and one hour before the start of the somatostatin infusion. The same amount of glucose as the initial OGTT study was given and the same rate of insulin and hormone was given during the clamp despite the gain weight of the animal, because we know that the animals mainly gain fat, a tissue that is unresponsive to the level of insulin.
Additionally, every 2 weeks, blood was harvested from each animal for multiple chemical measurements (Adiponectin, Superchem panel (performed by Antech Diagnostics)) before pioglitazone administration and feeding. Pioglitazone was also measured every 2 weeks in the serum, harvested 1 hour after pill administration and feeding.

Beagle dogs [3] = system: Beagle dogs
Procedure: This 17-week HFD design, metabolic reversal study was conducted on 4 groups of 12 Beagle dogs each. All dogs included in the study were males, aged 3-7 years, weighing 12.05-22.95 kg. After 63 days (9 weeks) of normal diet or HFD-feeding, Placebo was administered daily by mouth to Groups 1 and 2 while pioglitazone was administered daily by mouth to Groups 3 and 4.
Animals were fed their daily food ration (g) as a split ration. Each feeding (AM or PM) consisted of approximately half the animal's daily food ration and was offered approximately 4 hours apart. Dogs were given approximately 2 hours to consume each ration and any remaining food was weighed back for each feeding.
All dogs were fed ad libitum “normal diet” (ND) consisting of 55% fat for all baseline measurements prior to study start. Prior to the study start, dogs were randomly assigned to either ND or HFD consisting of 74% fat, on which they remained for approximately 9 weeks. After 9 weeks, HFD-fed animals were further randomized to treatment groups prior to dosing based on fasting insulin levels as the primary factor and total body weight as the secondary factor. Dogs in the ND group were continued on ND through the conclusion of the study. Blood collections for Chemistry, Haematology, Triglycerides, Cholesterol, Metabolomics and Lipidomics, efficacy Biomarkers (Adiponectin, Fasting Insulin, and Leptin), pioglitazone pharmacokinetics, Cytokines (IL-6 and TNFa) and Non-esterified fatty acids (NEFA) were performed throughout the study to assess the diet and drug-related effects on markers of safety and metabolic function. Baseline (Day −56) and Pre-Treatment (Day 0) readings of each parameter were compared to Treatment (Day 57) readings.
OGTTs were performed during the Pre-Treatment (Day −14) and Treatment (Day 42) phases to assess glucose and insulin kinetics and insulin sensitivity. OGTTs were carried out as previously described by Coate et al., 2010. Briefly, dogs were fasting overnight prior to conducting the procedure. Blood was sampled and serum and plasma separated at −20 and 0 minutes pre-glucose bolus to establish fasting glucose and insulin values. At 0 minutes (t=0), a glucose bolus (0.9 g/kg, p.o.) was delivered. Blood was collected at 5, 10, 20, 30, 40, 50, 60, 70, 80, 90, 120, 180 and 240 minutes post-glucose bolus. Serum was then analyzed for glucose and plasma was analyzed for insulin levels at each time point.
Dogs were fasted for a minimum of 12 hours prior to the first blood draw of each sampling day. D2O and ^2H2^18O were prepared with autoclaved glassware and utensils, weighed out separately, and drawn into separate syringes. Body weights were taken the day of sampling and prepared D2O and ^2H2^18O were drawn into separate syringes per animal and weighed to the third decimal place prior to administration. Two milliliters (mL) of blood was collected prior to administration of 50 mg/kg of 99% D2O and 150 mg/kg of 97% ^2H2^18O via oral syringe. Blood samples were then collected at 2 h, 24 h, 72 h, 120 h and 168 h after initial D2O+^2H2^18O administration. Following collection, blood was plasma separated in K2EDTA tubes and were stored at −80° C. until analysis.
Individual and summary statistics, arithmetic means, percentage change and within and between group comparisons were done.
Subjects were administered Pioglitazone treatment, and fatty acids analysis was performed from blood samples of subjects. Fatty acids were detected and analyzed by species and quantified. Additionally, the effects of Pioglitazone on each different species of fatty acids were analyzed, as shown in FIG. 6B (Palmitic Acid), FIG. 6C (Linoleic Acid), and FIG. 6D (Oleic Acid).

dogs [4] = settings: 12 weeks; oral 30, 60, 150 mg/kg/day; cited from earlier work
dogs [5] = settings: dog, in vivo, cited from earlier work
[6] = subjects 001-SAR-007 and 003-BAK-018
[7] = beagle dogs on HFD, both doses, Day 56, excluding 4 dogs with non-comparable insulins
[8] = beagle dogs on HFD, clamp experiments
[9] = HFD-fed Beagle dogs, 1 or 2 mg/kg/day by mouth
[10] = HFD-fed Beagle dogs, vs HFD-fed placebo group

Structure (SMILES): CCc1ccc(CCOc2ccc(CC3SC(=O)NC3=O)cc2)nc1.Cl (stereo not shown) [pioglitazone]
- nontoxic dose (dogs [1]; 26 weeks, oral 0, 1, 3, 10 mg/kg/day): be 3 mg/kg/day.
- hydropericardium (dogs [1]; dog, in vivo, 10 mg/kg): hydroperi-
- leukocytes (dogs [1]; dog, in vivo, 10 mg/kg): increase in platelet and leukocytes
- platelet (dogs [1]; dog, in vivo, 10 mg/kg): increase in platelet and leukocytes
- TBili (client-owned dogs; Subject 001-SAR-007, less than one month after starting, screening 0.5): 0.2 mg/dL
- insulin (client-owned dogs; Subject 001-SAR-007, less than one month after starting, screening 76.8, reference range 5.2-41.5): 16.2 uIU/mL
- ALP (client-owned dogs; Subject 001-SAR-007, less than one month after starting, screening 177, reference range 5-160): 88 U/L
- AST (client-owned dogs; Subject 001-SAR-007, less than one month after starting, screening 182, reference range 16-55): 22 U/L
- ALT (client-owned dogs; Subject 001-SAR-007, less than one month after starting, screening 469, reference range 18-121): 48 U/L
- ALP (client-owned dogs; Subject 003-BAK-016, screening 241 U/L, reference range 5-160 U/L): remained elevated
- insulin (client-owned dogs; Subject 003-BAK-016, subsequent visits before visit 6, screening 96.6, reference range 5.2-41.5): 62.2 uIU/mL and 52.9 uIU/mL
- insulin (client-owned dogs; Subject 003-BAK-016, visit 6, 90 days later, screening 96.6): 42.3 uIU/mL
- insulin (client-owned dogs; Subject 003-BAK-018, visit 4 (approximately day 30), screening 66.3, reference range 5.2-41.5): 15.3 uIU/mL
- ALP (client-owned dogs; Subject 003-BAK-018, visit 4 (approximately day 30), screening 1603, reference range 5-160): 774 U/L
- liver enzymes (client-owned dogs; all 3 dogs with elevated baseline insulin): reduction in liver enzymes
- average reduction in insulin levels (client-owned dogs; client-owned dogs, baseline to day 90, not statistically significant (p=0.538)): 2.35 uIU/mL
- average reductions in insulin levels compared with control group (client-owned dogs; client-owned dogs, p=0.171): trending lower
- gross lipemia in the blood samples (client-owned dogs; [6]): eliminating gross lipemia
- triglycerides (client-owned dogs; [6]): reduction or normalization
- insulin levels in dogs with elevated baseline insulin levels (client-owned dogs; three pioglitazone-treated dogs): notable effect
- insulin response during the OGTT (Beagle dogs [2]; beagle dogs on HFD, 1 mg/kg and 2 mg/kg daily, Day 46): reduced compared to the placebo group
- glucose metabolism (Beagle dogs [2]; beagle dogs on HFD, OGTT): normalize glucose metabolism without increasing insulin secretion
- GIR (glucose infusion rate), HIEG clamp (Beagle dogs [2]; [7]): able to overcome the defect
- Rd (rate of glucose disappearance), HIEG clamp (Beagle dogs [2]; [7]): able to overcome the defect
- fasting FFA levels (Beagle dogs [2]; [8]): reduced
- inhibition of lipolysis (Beagle dogs [2]; [8]): improved
- circulating adiponectin (Beagle dogs [2]; beagle dogs, 1 mg/kg and 2 mg/kg daily, by Day 14, vs placebo group): significant increase; also recorded: larger and more sustained than in the placebo group
- caloric intake (Beagle dogs [3]; HFD-fed Beagle dogs): without any effects
- food consumption (Beagle dogs [3]; HFD-fed Beagle dogs): without any effects
- leptin levels (Beagle dogs [3]; HFD-fed Beagle dogs): without any effects
- HFD-induced elevation of SFA (Beagle dogs [3]; [9]): reversed HFD-induced elevation of SFA
- palmitic acid (Beagle dogs [3]; [9]): decreases in palmitic acid
- levels of metabolically deleterious fatty acids (SFAs, palmitic acid, linoleic acid, oleic acid) (Beagle dogs [3]; HFD-fed Beagle dogs, 1 or 2 mg/kg/day by mouth, GC-MS): dose dependently regulates
- glucose excursion during glucose tolerance test (Beagle dogs [3]; HFD-fed Beagle dogs, 1 or 2 mg/kg/day by mouth, OGTT Day 42): no impact
- adiponectin (Beagle dogs [3]; HFD-fed Beagle dogs, 1 or 2 mg/kg/day by mouth, biomarker of target engagement): significantly upregulates
- fasting glucose measurements (Beagle dogs [3]; HFD-fed Beagle dogs, pioglitazone 1 or 2 mg/kg/day by mouth after 9 weeks HFD): no impact
- size of adipocytes in the viscera (histological examination) (Beagle dogs [3]; HFD-fed Beagle dogs, visceral and subcutaneous adipose tissue): decreased the size of adipocytes in the viscera
- body composition: fat mass (Beagle dogs [3]; [10]): increases in fat mass
- circulating cholesterol (Beagle dogs [3]; [10]): significantly reduced
- circulating triglycerides (Beagle dogs [3]; [10]): significantly reduced
- fatty acid profiles (Beagle dogs [3]; [10]): normalized detrimental fatty acid profiles
- tolerability of administration (Beagle dogs [3]; dog, in vivo): tolerated Placebo/pioglitazone administration well
- frequency of clinical signs (dogs [4]): The frequency appeared dose-dependent.
- serum albumin (dogs [5]; 10 mg/kg/day): Decrease in serum albumin and protein
- serum protein (dogs [5]; 10 mg/kg/day): Decrease in serum albumin and protein
- hematocrit (dogs [5]; 10 mg/kg): Reduction in hematocrit in both sexes

— patent publication US12161636B2, “Method of increasing lifespan in mammals” (priority 2023, dated 2024)
